Experimental data from patent publication US20060111288A1, “Peripheral benzodiazepine receptor independent superoxide generation” (priority 2004, published 2006).

Columns and labels:
HL60 leukaemia cells [1] = experiment: Mitochondrial membrane potential depolarisation (DiOC6(3) fluorescence, flow cytometry); format: cell-based, human
Experimental: (§1) HL60 promyelocytic leukaemia, Jurkat T cell leukaemia cells lacking the PBR,(18) (19) (kindly provided by Dr D. E. Banker and Dr F. Applebaum, The Fred Hutchinson Cancer Research Center, USA), and BV173 leukaemia cells were maintained in exponential suspension cultures in PPMI 1640 medium supplemented with 10% fetal calf serum, 5 mM glutamine, 100 μg/ml streptomycin and 100 U/ml penicillin. Cells were grown in a humidified atmosphere of 5% CO2/95% air at 37° C. PK11195 was dissolved in ethanol at a stock concentration of 8.7 mg/ml, and added to cells at a 75 μM final concentration for 4 hours; vehicle alone was also used in medium.
(§2) A Becton Dickinson FACScan (Oxford) was used to acquire 10,000 events using forward and scatter detectors with logarithmic amplification. Lymphoid enriched gates were defined. Corresponding DiOC6(3) or CMH2DCFDA fluorescence was analysed using the FL1 (530 nm) band pass filter. Propidium iodide or ethidium fluorescence were analysed using the FL3 (620 nm) band pass filter. List mode Data was analysed using WINMDI 2.8. Fluorescence microscopy was performed using a Zeiss Axioskop four colour florescence microscope with digital capture via a computer running IPLab Spectrum software.
(§3) Cells were incubated for 20 minutes at 37° C. in the dark with the cationic lipophillic (amphipathic) probe DiOC6(3) (80 nM), then counter stained for 10 minutes with propidium iodide (20 μg/ml). DiOC6(3) is sequestered within the mitochondrial matrix due to the inner membrane potential (ΔΨm), according to the Nernst equation, dissipation leading to a reduction in mitochondrial retention and decreased cellular DiOC6(3) fluorescence. Collapse of ΔΨm was prevented by incubating cells for 30 minutes with 50 μM bongkrekic acid. Events with increased propidium iodide fluorescence were subtracted, by gating, from the DiOC6(3) histograms to eliminate dead cells, with loss of plasma membrane integrity. Dose-response curves used the calculating the proportion of DiOC6(3) low cells as the dependent variable on the ordinate. To measure MPT directly, cells were incubated with 1 μM calcein AM for 30 minutes, followed by 1 mM […]. Cobalt quenches calcein fluorescence, but cannot traverse an intact inner mitochondrial membrane to enter the mitochondrial matrix, to which calcein equilibrates. Opening of the PTPC allows cobalt to enter, reducing calcein fluorescence.

HL60 leukaemia cells [2] = experiment: Direct measurement of MPT by calcein/cobalt quenching; format: cell-based, human; conditions: calcein AM plus cobalt, FIG. 1D/1E
Experimental: as §3

HL60 cells = experiment: Hydrogen peroxide generation (CMH2DCF fluorescence); format: cell-based, human
Experimental: as §2
(§4) O2^−· was detected by incubating cells for 15 minutes in 5 μM dihydroethidium, which is oxidized to ethidium. To test the effect of O2^−· […] on O2^−· generation, cells were treated with 100 μM MnTBAP for 45 minutes. Hydrogen peroxide was detected by loading cells for 30 minutes with 5 μM CM-H2DCFDA, and its formation inhibited by preincubation with 500 U/ml catalase for 30 minutes (21). Dose-response curves for CM-H2DCFDA used the calculated proportion of CM-H2DCFDA high cells as the dependent variable.

BV173 leukaemia cells = experiment: Hydrogen peroxide generation (CMH2DCF fluorescence) in PBR-positive cells; format: cell-based; conditions: PBR expressed, FIG. 3
Experimental: as §1, with “medium. O2^−· was detected by incubating cells for 15 minutes in 5 μM dihydroethidium, which is oxidized to ethidium. […] Hydrogen peroxide was detected by loading cells for 30 minutes with 5 μM CM-H2DCFDA, and its formation inhibited by preincubation with 500 U/ml catalase for 30 minutes (21). Dose-response curves for CM-H2DCFDA used the calculated proportion of CM-H2DCFDA high cells as the dependent variable.” for “medium.”

[3] = tested on: Jurkat T cell leukaemia cells; experiment: Hydrogen peroxide generation (CMH2DCF fluorescence) in PBR-negative cells; format: cell-based; conditions: PBR not expressed, FIG. 3
Experimental: as §1, with “medium. O2^−· was detected by incubating cells for 15 minutes in 5 μM dihydroethidium, which is oxidized to ethidium. […] Hydrogen peroxide was detected by loading cells for 30 minutes with 5 μM CM-H2DCFDA, and its formation inhibited by preincubation with 500 U/ml catalase for 30 minutes (21). Dose-response curves for CM-H2DCFDA used the calculated proportion of CM-H2DCFDA high cells as the dependent variable.” for “medium.”

leukaemia cells = experiment: Superoxide generation (dihydroethidium to ethidium fluorescence); format: cell-based
Experimental: as §2, §4

DoHH2 cells = experiment: Apoptosis induction in the presence and absence of the ROS scavenger MnTBAP; format: cell-based; conditions: 24, 48, 72 hr, 1000 micromolar MPTP, 100 micromolar PK11195, 50 micromolar HA14-1, FIG. 5
Experimental: DoHH2 cells, a lymphoma cell line, were treated with MPTP, PK11195 and HA14-1 in the presence and absence of MnTBAP, a scavenger of ROS. […] MnTBAP inhibited MPTP-induced and PK11195-induced apoptosis, but not apoptosis induced by HA14-1. The three columns in each lane represent three time courses (L to R: 24 hr, 48 hr and 72 hr). […] The induction of apoptosis at the same time points as a result of treatment with 1000 micromolar MPTP is shown in lane “1000”.
The blockade of MPTP induction of apoptosis by MnTBAP parallels that of PK11195.
DoHH2 cells, a lymphoma cell line with high levels of the […] protein Bcl-2 due to a translocation between chromosome 14 and 18 (where the Bcl-2 gene is located), were exposed to MPTP, PK11195 and HA 14-1 in the presence and absence of the mitochondrial ROS scavenger, MnTBAP.

[4] = tested on: primary chronic lymphatic leukaemia cells; experiment: Apoptosis induction in primary leukaemia cells; format: cell-based; conditions: primary chronic lymphatic leukaemia cells (higher NADPH oxidase than normal cells)
[5] = tested on: normal, non-malignant lymphocytes; experiment: Apoptosis induction in normal lymphocytes; format: cell-based
[6] = tested on: peripheral benzodiazepine receptor (PBR); conditions: references 1, 2; cited from earlier work

With `CCC(C)N(C)C(=O)c1cc2ccccc2c(-c2ccccc2Cl)n1` (centres unmarked) [PK11195, 1-(2-chlorophenyl)-N-methyl-N-methyl-N-(1-methylpropyl)-isoquinoline carboxamide] the “time until reduction in DiOC6(3) fluorescence is detectable” value (HL60 leukaemia cells [1]; PK11195 treated) was no more than 3 h, the “DiOC6(3) fluorescence (collapse of mitochondrial ΔΨm)” value (HL60 leukaemia cells [1]; PK11195 treated vs control, FIG. 1A/1B) was “reduction in DiOC6(3) fluorescence” and the “mitochondrial calcein fluorescence (MPT, open PTPCs)” value (HL60 leukaemia cells [2]) was “quenched”. The “concentration range in which CMH2DCF fluorescence increased” value (HL60 cells; HL60 cells, concentration dependent, FIG. 2A) was 50 to 100 µM, the “CMH2DCF fluorescence (generation of H202)” value (BV173 leukaemia cells) was “increase in CMH2DCF fluorescence” and the “CMH2DCF fluorescence (generation of H202)” value [3] was “increase in CMH2DCF fluorescence”. For the same molecule, the “ethidium fluorescence (O2−· generation)” value (leukaemia cells; following PK11195 treatment vs control, FIG. 4A) was “early increase in ethidium fluorescence”, the “effect of MnTBAP on apoptosis induced by the compound” value (from here on “effect of MnTBAP on apoptosis induced”) (DoHH2 cells) was “inhibited” and the induction of apoptosis [4] was “induces apoptosis”. The induction of apoptosis [5] was “does not do so” and the “binding affinity to the PBR” value [6] was “nanomolar”.
With `CO[C@H](C/C=C\C=C\CC/C=C/C[C@H](C)/C=C/C(=C\C(=O)O)CC(=O)O)/C(C)=C\C=C(/C)C(=O)O` [BA, Bongkrekic acid] the “effect of inhibitor on PK11195 mediated mitochondrial depolarisation” value (HL60 leukaemia cells [1]; pre-treatment with 50 μM bongkrekic acid for 30 minutes, FIG. 1C) was “prevented”.
In the case of `CCOC(=O)C1=C(N)Oc2ccc(Br)cc2C1C(C#N)C(=O)OCC` (centres unmarked) [HA14-1], the “effect of MnTBAP on apoptosis induced” value (DoHH2 cells) is reported as “not blocked”.
With catalase the “effect on PK11195 induced increase in CMH2DCF fluorescence” value (HL60 cells; HL60 cells preincubated with catalase 500 U/ml, FIG. 2B) was “inhibited”.
For `CN1CC=C(c2ccccc2)CC1` [MPTP, 1-methyl-4-phenyl-1,2,3,6-tefrahydropyridine], the “effect of MnTBAP on apoptosis induced” value (DoHH2 cells) was “inhibited”.
In the case of `O=C(O)c1ccc(C2=C3C=CC(=N3)C(c3ccc(C(=O)O)cc3)=c3ccc([nH]3)=C(c3ccc(C(=O)O)cc3)c3ccc([n-]3)C(c3ccc(C(=O)O)cc3)c3ccc2[n-]3)cc1.[Cl-].[Mn+3]` (centres unmarked) [MnTBAP, Manganese (III) tetrakis (4-benzoic acid) porphyrin chloride], the “effect on rate of PK11195 induced mitochondrial depolarisation (rate of reduction of DiOC6(3) fluorescence)” value (HL60 leukaemia cells [1]; presence vs absence of MnTBAP, FIG. 4C) is reported as “Reduction in the rate of inner mitochondrial membrane depolarisation” and the “effect on PK11195 induced increase in ethidium fluorescence” value (leukaemia cells; 100 μM MnTBAP, FIG. 4B) is reported as “inhibited”.
